# Experimental data: ChEMBL document CHEMBL4402526, “Design and Synthesis of Fungal-Selective Resorcylate Aminopyrazole Hsp90 Inhibitors” (J Med Chem, 2020)
# Activity calls are given as the source filed them. How the calls were made is not given here.
# Assays:
# Cryptococcus neoformans = test: Antifungal activity against Cryptococcus neoformans H99 assessed as fungal growth inhibition at <= […] uM measured after 48 hrs by resazurin assay; type: functional, organism-based
# Candida albicans = test: Antifungal activity against Candida albicans clinical isolate 2 assessed as fungal growth inhibition at <= […] uM measured after 48 hrs by resazurin assay; type: functional, organism-based
Structure (SMILES),Activity (Cryptococcus neoformans),Activity (Candida albicans)
Cc1ccccc1-c1cc(Nc2cc(O)cc(O)c2C(=O)N2Cc3cn[nH]c3C2)n(C)n1,Active,Active
COc1ccc(Cn2nc(-c3ccoc3)cc2Nc2cc(O)cc(O)c2C(=O)N2Cc3cccnc3C2)cc1,Active,Active
CCc1cc(Nc2cc(O)cc(O)c2C(=O)N2Cc3cccnc3C2)n(Cc2ccc(OC)cc2)n1,Active,Active
O=C(c1c(O)cc(O)cc1Nc1cc(-c2ccccc2)nn1C1CCCCC1)N1Cc2cn[nH]c2C1,Active,Active
COc1ccc(Cn2nc(-c3ccccc3)cc2Nc2cc(O)cc(O)c2C(=O)N2Cc3ccc(OCCN(C)C)cc3C2)cc1,Active,Active
COc1ccc(-c2cc(Nc3cc(O)cc(O)c3C(=O)N3Cc4cccnc4C3)n(C)n2)cc1,Active,Active
COc1ccc(Cn2nc(C3CCCC3)cc2Nc2cc(O)cc(O)c2C(=O)N2Cc3cccnc3C2)cc1,Active,Active
CC(C)Cn1nccc1Nc1cc(O)cc(O)c1C(=O)N1Cc2ccccc2C1,Active,Active
COc1ccc(Cn2nc(C(C)C)cc2Nc2cc(O)cc(O)c2C(=O)N2Cc3cn[nH]c3C2)cc1,Active,Active
Cn1nc(-c2ccc(C(C)(C)C)cc2)cc1Nc1cc(O)cc(O)c1C(=O)N1Cc2ccccc2C1,Active,Active
COc1ccc(Cn2nc(C)cc2Nc2cc(O)cc(O)c2C(=O)N2Cc3cccc(F)c3C2)cc1,Active,Active
Cc1cccc(-c2cc(Nc3cc(O)cc(O)c3C(=O)N3Cc4cccnc4C3)n(C)n2)c1,Active,Active
COc1ccc(Cn2nc(C)cc2Nc2cc(O)cc(O)c2C(=O)N2Cc3ccc(N4CCN(C)CC4)cc3C2)cc1,Active,Active
CCc1cc(Nc2cc(O)cc(O)c2C(=O)N2Cc3cn[nH]c3C2)n(Cc2ccc(OC)cc2)n1,Active,Active
O=C(c1c(O)cc(O)cc1Nc1ccnn1Cc1cccnc1)N1Cc2cccnc2C1,Active,Active
O=C(c1c(O)cc(O)cc1Nc1cc(-c2ccccc2)nn1C1CCCCC1)N1Cc2cccnc2C1,Active,Active
O=C(c1c(O)cc(O)cc1Nc1ccnn1C1CCCCC1)N1Cc2ccccc2C1,Active,Active
Cn1nc(-c2ccc(C(F)(F)F)cc2)cc1Nc1cc(O)cc(O)c1C(=O)N1Cc2cccnc2C1,Active,Active
O=C(c1c(O)cc(O)cc1Nc1ccnn1Cc1ccco1)N1Cc2cn[nH]c2C1,Active,Active
Cn1nc(C2CCCCC2)cc1Nc1cc(O)cc(O)c1C(=O)N1Cc2ccccc2C1,Active,Active
COc1ccc(-c2cc(Nc3cc(O)cc(O)c3C(=O)N3Cc4ccccc4C3)n(C)n2)cc1,Active,Active
O=C(c1c(O)cc(O)cc1Nc1ccnn1C1CCCCC1)N1Cc2cccnc2C1,Active,Active
COc1ccc(Cn2nc(C)cc2Nc2cc(O)cc(O)c2C(=O)N2Cc3cccnc3C2)cc1,Active,Active

Structure (SMILES),Activity (Cryptococcus neoformans),Activity (Candida albicans)
CC(C)n1nccc1Nc1cc(O)cc(O)c1C(=O)N1Cc2ccccc2C1,Active,Active
CC(C)c1cc(Nc2cc(O)cc(O)c2C(=O)N2Cc3ccccc3C2)n(C)n1,Active,Active
COc1ccc(Cn2nc(C(C)C)cc2Nc2cc(O)cc(O)c2C(=O)N2Cc3cccnc3C2)cc1,Active,Active
O=C(c1c(O)cc(O)cc1Nc1ccnn1CC1CCCCC1)N1Cc2cccnc2C1,Active,Active
COc1ccc(Cn2nccc2Nc2cc(O)cc(O)c2C(=O)N2Cc3ccccc3C2)cc1,Active,Active
CC(C)c1ccc(Cn2nccc2Nc2cc(O)cc(O)c2C(=O)N2Cc3cccnc3C2)cc1,Active,Active
Cn1nccc1Nc1cc(O)cc(O)c1C(=O)N1Cc2cccnc2C1,Active,Active
COc1ccc(Cn2nc(-c3ccccc3)cc2Nc2cc(O)cc(O)c2C(=O)N2Cc3ccc(F)cc3C2)cc1,Active,Active
Cc1cccc(-c2cc(Nc3cc(O)cc(O)c3C(=O)N3Cc4ccccc4C3)n(C)n2)c1,Active,Active
O=C(c1c(O)cc(O)cc1Nc1ccnn1Cc1ccccc1)N1Cc2ccccc2C1,Active,Active
CC(C)Cn1nccc1Nc1cc(O)cc(O)c1C(=O)N1Cc2cn[nH]c2C1,Active,Active
COc1ccc(Cn2nc(C(C)(C)C)cc2Nc2cc(O)cc(O)c2C(=O)N2Cc3ccccc3C2)cc1,Active,Active
CC(C)c1cc(Nc2cc(O)cc(O)c2C(=O)N2Cc3cn[nH]c3C2)n(C)n1,Active,Active
Cn1nc(-c2cccc(C(F)(F)F)c2)cc1Nc1cc(O)cc(O)c1C(=O)N1Cc2cccnc2C1,Active,Active
O=C(c1c(O)cc(O)cc1Nc1ccnn1Cc1ccco1)N1Cc2ccccc2C1,Active,Active
Cn1nc(-c2ccc(C(F)(F)F)cc2)cc1Nc1cc(O)cc(O)c1C(=O)N1Cc2cn[nH]c2C1,Active,Active
O=C(c1c(O)cc(O)cc1Nc1ccnn1Cc1cccnc1)N1Cc2cn[nH]c2C1,Active,Active
CC(C)n1nccc1Nc1cc(O)cc(O)c1C(=O)N1Cc2cn[nH]c2C1,Active,Active
Cc1cc(Nc2cc(O)cc(O)c2C(=O)N2Cc3ccccc3C2)n(Cc2ccccc2C)n1,Active,Active
COc1ccc(Cn2nc(C)cc2Nc2cc(O)cc(O)c2C(=O)N2Cc3ccc(OCCN(C)C)cc3C2)cc1,Active,Active
COc1ccc(Cn2nc(-c3ccoc3)cc2Nc2cc(O)cc(O)c2C(=O)N2Cc3cn[nH]c3C2)cc1,Active,Active
CC(C)(C)n1nc(-c2ccccc2)cc1Nc1cc(O)cc(O)c1C(=O)N1Cc2cccnc2C1,Active,Active
CC(C)Cn1nccc1Nc1cc(O)cc(O)c1C(=O)N1Cc2cccnc2C1,Active,Active

Structure (SMILES),Activity (Cryptococcus neoformans),Activity (Candida albicans)
CC(C)Cn1nc(-c2ccccc2)cc1Nc1cc(O)cc(O)c1C(=O)N1Cc2cccnc2C1,Active,Active
O=C(c1c(O)cc(O)cc1Nc1ccnn1C1CCCCC1)N1Cc2cn[nH]c2C1,Active,Active
COc1ccc(Cn2nc(C)cc2Nc2cc(O)cc(O)c2C(=O)N2Cc3ccc(NC4CCN(C)CC4)cc3C2)cc1,Active,Active
Cc1ccccc1-c1cc(Nc2cc(O)cc(O)c2C(=O)N2Cc3cccnc3C2)n(C)n1,Active,Active
COc1ccc(Cn2nc(C3CCCC3)cc2Nc2cc(O)cc(O)c2C(=O)N2Cc3cn[nH]c3C2)cc1,Active,Active
Cn1nc(-c2cccc(C(F)(F)F)c2)cc1Nc1cc(O)cc(O)c1C(=O)N1Cc2ccccc2C1,Active,Active
O=C(c1c(O)cc(O)cc1Nc1ccnn1CC1CCCCC1)N1Cc2ccccc2C1,Active,Active
Cc1ccc(-c2cc(Nc3cc(O)cc(O)c3C(=O)N3Cc4ccccc4C3)n(C)n2)cc1,Active,Active
Cn1nc(C2CCCCC2)cc1Nc1cc(O)cc(O)c1C(=O)N1Cc2cccnc2C1,Active,Active
Cc1ccc(Cn2nc(C)cc2Nc2cc(O)cc(O)c2C(=O)N2Cc3ccccc3C2)cc1,Active,Active
COc1ccc(-c2cc(Nc3cc(O)cc(O)c3C(=O)N3Cc4cn[nH]c4C3)n(C)n2)cc1,Active,Active
O=C(c1c(O)cc(O)cc1Nc1ccnn1-c1ccccc1)N1Cc2cn[nH]c2C1,Active,Active
O=C(c1c(O)cc(O)cc1Nc1ccnn1-c1ccccc1)N1Cc2ccccc2C1,Active,Active
COc1ccc(Cn2nc(-c3ccccc3)cc2Nc2cc(O)cc(O)c2C(=O)N2CCCC2)cc1,Active,Active
O=C(c1c(O)cc(O)cc1Nc1ccnn1Cc1ccccc1)N1Cc2cccnc2C1,Active,Active
Cn1nc(-c2ccccc2)cc1Nc1cc(O)cc(O)c1C(=O)N1Cc2cn[nH]c2C1,Active,Active
O=C(c1c(O)cc(O)cc1Nc1ccnn1CC1CCCCC1)N1Cc2cn[nH]c2C1,Active,Active
CC(C)Cn1nc(-c2ccccc2)cc1Nc1cc(O)cc(O)c1C(=O)N1Cc2cn[nH]c2C1,Active,Active
Cn1nc(-c2ccccc2)cc1Nc1cc(O)cc(O)c1C(=O)N1Cc2ccccc2C1,Active,Active
CC(C)c1cc(Nc2cc(O)cc(O)c2C(=O)N2Cc3cccnc3C2)n(C)n1,Active,Active
COc1ccc(Cn2ncc(C(C)C)c2Nc2cc(O)cc(O)c2C(=O)N2Cc3ccccc3C2)cc1,Active,Active
Cn1nccc1Nc1cc(O)cc(O)c1C(=O)N1Cc2cn[nH]c2C1,Active,Active
CC(C)c1ccc(Cn2nccc2Nc2cc(O)cc(O)c2C(=O)N2Cc3cn[nH]c3C2)cc1,Active,Active
